# Assays:
# [1] = tested on: MDA-MB-468; conditions: 72 h
# In short: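 Seeding of breast cancer cell lines (20 µl suspension) was done into 384-well plates pre-loaded with compound at 5 concentrations, 10-fold apart, covering a compound-specific 10,000-fold range. The plates were incubated for 72 h, read for CellTox Green fluorescence (485/520 nm), and then read for CellTiter-Glo luminescence after 10 min at room temperature. Every plate was normalised to 0.1 % DMSO and a positive kill control. Curve fitting gave the EC50, censored at the top concentration.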
# [2] = tested on: SK-BR-3; experiment: normalised viability (% of control), CellTiter-Blue; higher = more viable cells (about 100 = DMSO control); conditions: incubation time: 72 h
# In short: (§1)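 Breast cancer cell lines were treated for 72 h in 384-well format and measured by CellTiter-Blue fluorescence at 560/590 nm. Results were normalised per plate to vehicle (100) and a positive kill control (0). The entry is normalised viability at a single listed concentration of the series.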
# [3] = tested on: CAL-51; experiment: as above; conditions: incubation time: 72 h
# In short: as §1
# [4] = tested on: BT-549; experiment: as above; conditions: incubation time: 72 h
# In short: as §1
# [5] = tested on: DU-4475; experiment: as above; conditions: incubation time: 72 h
# In short: as §1
# [6] = tested on: MFM-223; experiment: as above; conditions: incubation time: 72 h
# In short: as §1
# [7] = tested on: BT-474; experiment: as above; conditions: incubation time: 72 h
# In short: as §1
# [8] = tested on: MDA-MB-453; experiment: as above; conditions: incubation time: 72 h
# In short: as §1
compound,measurement,setting,value
COC(=O)c1ccc2c(c1)NC(=O)/C2=C(\Nc1ccc(N(C)C(=O)CN2CCN(C)CC2)cc1)c1ccccc1 [Nintedanib],"EC50, CellTiter-Glo",[1],3360 nM
C=C1C[C@@H]2[C@H](CC[C@]3(C)C(=O)CC[C@@H]23)[C@@]2(C)C=CC(=O)C=C12 [Exemestane],normalised viability,[2]; 10 nM,85.2%
same,normalised viability,[2]; 1000 nM,101%
same,normalised viability,[2]; 10000 nM,79.3%
same,normalised viability,[3]; 3 nM,101%
same,normalised viability,[3]; 30 nM,95.8%
same,normalised viability,[3]; 100 nM,86.5%
same,normalised viability,[4]; 10 nM,83.5%
same,normalised viability,[4]; 1000 nM,108%
same,normalised viability,[4]; 10000 nM,85.9%
same,normalised viability,[5]; 3 nM,95.1%
same,normalised viability,[5]; 30 nM,98%
same,normalised viability,[5]; 100 nM,79.4%
same,normalised viability,[6]; 10 nM,90.6%
same,normalised viability,[6]; 1000 nM,101%
same,normalised viability,[6]; 10000 nM,108%
same,normalised viability,[7]; 10 nM,111%
same,normalised viability,[7]; 1000 nM,93.7%
same,normalised viability,[7]; 10000 nM,103%
same,normalised viability,[8]; 3 nM,103%
same,normalised viability,[8]; 30 nM,87.3%
same,normalised viability,[8]; 100 nM,97.8%
c1ccc2c(CCNc3ccc(Nc4ccncc4)cc3)c[nH]c2c1 [Serdemetan],"EC50, CellTiter-Glo",[1],2280 nM
same,normalised viability,[2]; 10 nM,96.6%
same,normalised viability,[2]; 1000 nM,116%
same,normalised viability,[2]; 10000 nM,72.2%
same,normalised viability,[3]; 3 nM,118%
same,normalised viability,[3]; 30 nM,106%
same,normalised viability,[3]; 100 nM,108%
same,normalised viability,[4]; 10 nM,95.6%
same,normalised viability,[4]; 1000 nM,81.5%
same,normalised viability,[4]; 10000 nM,26.5%
same,normalised viability,[5]; 3 nM,93.1%
same,normalised viability,[5]; 30 nM,88.3%
same,normalised viability,[5]; 100 nM,89.6%
same,normalised viability,[6]; 10 nM,83.2%
same,normalised viability,[6]; 1000 nM,104%
same,normalised viability,[6]; 10000 nM,66.4%
same,normalised viability,[7]; 10 nM,106%
same,normalised viability,[7]; 1000 nM,106%
same,normalised viability,[7]; 10000 nM,94.4%
same,normalised viability,[8]; 3 nM,119%
same,normalised viability,[8]; 30 nM,93.8%
same,normalised viability,[8]; 100 nM,104%
Cc1cc(Nc2cc(CN3CCOCC3)c3nc(C)c(Cc4ccc(Cl)cc4F)n3n2)n[nH]1 [Gandotinib],"EC50, CellTiter-Glo",[1],711 nM
CCOC(=O)CCNc1cc(N2CCc3ccccc3CC2)nc(-c2ccccn2)n1 [GSK-J4],"EC50, CellTiter-Glo",[1],1890 nM
S=P(N1CC1)(N1CC1)N1CC1 [Thio-TEPA],normalised viability,[2]; 100 nM,102%
same,normalised viability,[2]; 10000 nM,99.3%
same,normalised viability,[2]; 100000 nM,97.1%
same,normalised viability,[3]; 30 nM,95.4%
same,normalised viability,[3]; 300 nM,97.1%
same,normalised viability,[3]; 1000 nM,97.4%
same,normalised viability,[4]; 100 nM,95.2%
same,normalised viability,[4]; 10000 nM,119%
same,normalised viability,[4]; 100000 nM,116%
same,normalised viability,[5]; 30 nM,97.2%
same,normalised viability,[5]; 300 nM,98.7%
same,normalised viability,[5]; 1000 nM,91.8%
same,normalised viability,[6]; 100 nM,105%
same,normalised viability,[6]; 10000 nM,106%
same,normalised viability,[6]; 100000 nM,104%
same,normalised viability,[7]; 100 nM,119%
same,normalised viability,[7]; 10000 nM,114%
same,normalised viability,[7]; 100000 nM,115%
same,normalised viability,[8]; 30 nM,111%
same,normalised viability,[8]; 300 nM,113%
same,normalised viability,[8]; 1000 nM,104%
N#Cc1ccc(COC[C@H]2O[C@@H](n3c(NCc4ccc(Cl)c(Cl)c4)nc4c(N)ncnc43)[C@H](O)[C@@H]2O)cc1,"EC50, CellTiter-Glo",[1],2270 nM
same,normalised viability,[2]; 10 nM,115%
same,normalised viability,[2]; 1000 nM,102%
same,normalised viability,[2]; 10000 nM,37.3%
same,normalised viability,[3]; 3 nM,118%
same,normalised viability,[3]; 30 nM,110%
same,normalised viability,[3]; 100 nM,110%
same,normalised viability,[4]; 10 nM,87.7%
same,normalised viability,[4]; 1000 nM,84%
same,normalised viability,[4]; 10000 nM,34.4%
same,normalised viability,[5]; 3 nM,97.8%
same,normalised viability,[5]; 30 nM,88.7%
same,normalised viability,[5]; 100 nM,113%
same,normalised viability,[6]; 10 nM,93%
same,normalised viability,[6]; 1000 nM,101%
same,normalised viability,[6]; 10000 nM,93.6%
same,normalised viability,[7]; 10 nM,135%
same,normalised viability,[7]; 1000 nM,95%
same,normalised viability,[7]; 10000 nM,89.5%
same,normalised viability,[8]; 3 nM,124%
same,normalised viability,[8]; 30 nM,95.7%
same,normalised viability,[8]; 100 nM,91.4%
Nc1cc(C(F)(F)F)c(-c2cc(N3CCOCC3)nc(N3CCOCC3)n2)cn1 [Buparlisib],"EC50, CellTiter-Glo",[1],2710 nM
Cc1cc(Nc2cc(CN3CCOCC3)c3nc(C)c(Cc4ccc(Cl)cc4F)n3n2)n[nH]1,normalised viability,[2]; 10 nM,102%
same,normalised viability,[2]; 1000 nM,70.9%
same,normalised viability,[2]; 10000 nM,30.5%
same,normalised viability,[3]; 3 nM,97.1%
same,normalised viability,[3]; 30 nM,95.2%
same,normalised viability,[3]; 100 nM,94.2%
same,normalised viability,[4]; 10 nM,97.8%
same,normalised viability,[4]; 1000 nM,78.8%
same,normalised viability,[4]; 10000 nM,9.99%
same,normalised viability,[5]; 3 nM,110%
same,normalised viability,[5]; 30 nM,94.7%
same,normalised viability,[5]; 100 nM,122%
same,normalised viability,[6]; 10 nM,102%
same,normalised viability,[6]; 1000 nM,50.6%
same,normalised viability,[6]; 10000 nM,44.8%
same,normalised viability,[7]; 10 nM,109%
same,normalised viability,[7]; 1000 nM,96.6%
same,normalised viability,[7]; 10000 nM,49.7%
same,normalised viability,[8]; 3 nM,90.4%
same,normalised viability,[8]; 30 nM,101%
same,normalised viability,[8]; 100 nM,82.8%
O=P1(N(CCCl)CCCl)NCCCO1 (stereo not given) [Cyclophosphamide],normalised viability,[2]; 40 nM,105%
same,normalised viability,[2]; 4000 nM,102%
same,normalised viability,[2]; 40000 nM,110%
same,normalised viability,[3]; 12 nM,111%
same,normalised viability,[3]; 120 nM,99%
same,normalised viability,[3]; 400 nM,111%
same,normalised viability,[4]; 40 nM,94.3%
same,normalised viability,[4]; 4000 nM,94.9%
same,normalised viability,[4]; 40000 nM,95.2%
same,normalised viability,[5]; 12 nM,110%
same,normalised viability,[5]; 120 nM,90.9%
same,normalised viability,[5]; 400 nM,113%
same,normalised viability,[6]; 40 nM,92.1%
same,normalised viability,[6]; 4000 nM,98.9%
same,normalised viability,[6]; 40000 nM,98.5%
same,normalised viability,[7]; 40 nM,121%
same,normalised viability,[7]; 4000 nM,119%
same,normalised viability,[7]; 40000 nM,127%
same,normalised viability,[8]; 12 nM,105%
same,normalised viability,[8]; 120 nM,105%
same,normalised viability,[8]; 400 nM,111%
Cc1ccc(NC(=O)c2ccc(CN3CCN(C)CC3)cc2)cc1Nc1nc(-c2cccnc2)cs1 [Masitinib],"EC50, CellTiter-Glo",[1],2290 nM
same,normalised viability,[2]; 10 nM,99.6%
same,normalised viability,[2]; 1000 nM,102%
same,normalised viability,[2]; 10000 nM,25.2%
same,normalised viability,[3]; 3 nM,106%
same,normalised viability,[3]; 30 nM,100%
same,normalised viability,[3]; 100 nM,97.5%
same,normalised viability,[4]; 10 nM,94.2%
same,normalised viability,[4]; 1000 nM,100%
same,normalised viability,[4]; 10000 nM,51.2%
same,normalised viability,[5]; 3 nM,109%
same,normalised viability,[5]; 30 nM,91.4%
same,normalised viability,[5]; 100 nM,95.5%
same,normalised viability,[6]; 10 nM,89.2%
same,normalised viability,[6]; 1000 nM,93.7%
same,normalised viability,[6]; 10000 nM,92.5%
same,normalised viability,[7]; 10 nM,105%
same,normalised viability,[7]; 1000 nM,101%
same,normalised viability,[7]; 10000 nM,50.1%
same,normalised viability,[8]; 3 nM,112%
same,normalised viability,[8]; 30 nM,123%
same,normalised viability,[8]; 100 nM,105%
O=C(Nc1ccncc1)C(=O)c1cn(Cc2ccc(Cl)cc2)c2ccccc12 [Indibulin],"EC50, CellTiter-Glo",[1],273 nM
same,normalised viability,[2]; 10 nM,94.5%
same,normalised viability,[2]; 1000 nM,19.9%
same,normalised viability,[2]; 10000 nM,20.6%
same,normalised viability,[3]; 3 nM,106%
same,normalised viability,[3]; 30 nM,104%
same,normalised viability,[3]; 100 nM,102%
same,normalised viability,[4]; 10 nM,103%
same,normalised viability,[4]; 1000 nM,31.4%
same,normalised viability,[4]; 10000 nM,23.5%
same,normalised viability,[5]; 3 nM,111%
same,normalised viability,[5]; 30 nM,93.7%
same,normalised viability,[5]; 100 nM,123%
same,normalised viability,[6]; 10 nM,112%
same,normalised viability,[6]; 1000 nM,63.7%
same,normalised viability,[6]; 10000 nM,68.5%
same,normalised viability,[7]; 10 nM,99.9%
same,normalised viability,[7]; 1000 nM,47.2%
same,normalised viability,[7]; 10000 nM,39.2%
same,normalised viability,[8]; 3 nM,97.2%
same,normalised viability,[8]; 30 nM,61.7%
same,normalised viability,[8]; 100 nM,65.5%
NC(=O)c1ccc(I)c([N+](=O)[O-])c1 [Iniparib],"EC50, CellTiter-Glo",[1],230 nM
same,normalised viability,[2]; 10 nM,89.7%
same,normalised viability,[2]; 1000 nM,104%
same,normalised viability,[2]; 10000 nM,91.5%
same,normalised viability,[3]; 3 nM,92.6%
same,normalised viability,[3]; 30 nM,92.9%
same,normalised viability,[3]; 100 nM,96.4%
same,normalised viability,[4]; 10 nM,104%
same,normalised viability,[4]; 1000 nM,112%
same,normalised viability,[4]; 10000 nM,116%
same,normalised viability,[5]; 3 nM,84.1%
same,normalised viability,[5]; 30 nM,73.9%
same,normalised viability,[5]; 100 nM,98.8%
same,normalised viability,[6]; 10 nM,93.9%
same,normalised viability,[6]; 1000 nM,99%
same,normalised viability,[6]; 10000 nM,95.4%
same,normalised viability,[7]; 10 nM,95.2%
same,normalised viability,[7]; 1000 nM,106%
same,normalised viability,[7]; 10000 nM,96.6%
same,normalised viability,[8]; 3 nM,91.7%
same,normalised viability,[8]; 30 nM,94.7%
same,normalised viability,[8]; 100 nM,99.9%
COCC[n+]1c2c(n(Cc3cnccn3)c1C)C(=O)c1ccccc1C2=O [YM155],"EC50, CellTiter-Glo",[1],3.73 nM
same,normalised viability,[2]; 10 nM,44.3%
same,normalised viability,[2]; 1000 nM,0.33%
same,normalised viability,[2]; 10000 nM,0.6%
same,normalised viability,[3]; 3 nM,94.6%
same,normalised viability,[3]; 30 nM,38.9%
same,normalised viability,[3]; 100 nM,11.5%
same,normalised viability,[4]; 10 nM,83%
same,normalised viability,[4]; 1000 nM,0.74%
same,normalised viability,[4]; 10000 nM,-0.61%
same,normalised viability,[5]; 3 nM,124%
same,normalised viability,[5]; 30 nM,95.8%
same,normalised viability,[5]; 100 nM,57.8%
same,normalised viability,[6]; 10 nM,62.8%
same,normalised viability,[6]; 1000 nM,12.2%
same,normalised viability,[6]; 10000 nM,6.53%
same,normalised viability,[7]; 10 nM,84.2%
same,normalised viability,[7]; 1000 nM,0.63%
same,normalised viability,[7]; 10000 nM,2.25%
same,normalised viability,[8]; 3 nM,70.7%
same,normalised viability,[8]; 30 nM,18.7%
same,normalised viability,[8]; 100 nM,18.2%

# Reference: the supplement of paper PMC4862054
